According to patent US9624175B2, “Fused-bicyclic aryl quinolinone derivatives as mutant-isocitrate dehydrogenase inhibitors” (Forma Therapeutics, Inc., priority 2015, dated 2017):

Legend:
[1] = molecular target: IDH1-R132H recombinant protein (Homo sapiens (Human), UniProt O75874, R132H); test: IDH1-R132H enzymatic assay (NADPH consumption, diaphorase/resazurin readout); assay type: biochemical; conditions: inhibition of NADPH consumption, 30 nM IDH1-R132H; read-out: Enzyme IDH1 R132H IC50
Procedure: (§1) Assays were performed in a 384-well black plate. An aliquot of 250 nL of compound was incubated with 10 μL of 30 nM IDH1-R132H or 10 nM IDH1-R132C recombinant protein in assay buffer (50 mM Tris pH=7.5, 150 mM NaCl, 5 mM MgCl2, 0.1% (w/v) Bovine Serum Albumin, and 0.01% Triton X-100) in each well at 25° C. for 15 minutes. After the plate was centrifuged briefly, an aliquot of 10 μL of 2 mM α-ketoglutarate and 20 μM NADPH solution prepared in assay buffer was then added to each well and the reaction was maintained at 25° C. for 45 minutes. An aliquot of 10 μL of diaphorase solution (0.15 U/mL diaphorase and 30 μM Resazurin in assay buffer) was added to each well. The plate was maintained at 25° C. for 15 minutes and then read on a plate reader with excitation and emission wavelengths at 535 nm and 590 nm, respectively. The IC50 of a given compound was calculated by fitting the dose response curve of inhibition of NADPH consumption at a given concentration with the four parameter logistic equation.

[2] = molecular target: IDH1-R132C recombinant protein (Homo sapiens (Human), UniProt O75874, R132C); test: IDH1-R132C enzymatic assay (NADPH consumption, diaphorase/resazurin readout); assay type: biochemical; conditions: inhibition of NADPH consumption, 10 nM IDH1-R132C; read-out: Enzyme IDH1 R132C IC50
Procedure: as §1

Sequence of IDH1-R132C recombinant protein (O75874 whole entry R132C): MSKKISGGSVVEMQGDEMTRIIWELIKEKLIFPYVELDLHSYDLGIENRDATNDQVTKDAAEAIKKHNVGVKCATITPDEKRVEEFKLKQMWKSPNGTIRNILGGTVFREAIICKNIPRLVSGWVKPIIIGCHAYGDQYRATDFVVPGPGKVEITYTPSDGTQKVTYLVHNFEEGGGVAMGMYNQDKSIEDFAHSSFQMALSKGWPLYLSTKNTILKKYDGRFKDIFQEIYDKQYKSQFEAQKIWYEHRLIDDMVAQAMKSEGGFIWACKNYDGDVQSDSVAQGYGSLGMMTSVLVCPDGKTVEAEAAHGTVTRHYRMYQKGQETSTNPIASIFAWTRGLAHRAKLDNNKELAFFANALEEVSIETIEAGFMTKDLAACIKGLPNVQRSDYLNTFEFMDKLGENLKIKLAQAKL
Sequence of IDH1-R132H recombinant protein (O75874 whole entry R132H): as the sequence (O75874 whole entry R132C) above, with C132H counted along it

Structure (SMILES)	IC50 [1]	IC50 [2]
C[C@@H](Nc1ncc2c(n1)N(C)C(=O)OC2)c1cc2cc(Cl)c(F)cc2[nH]c1=O [Compound I-53, 6-chloro-7-fluoro-3-[(1R)-1-({1-methyl-2-oxo-1H,2H,4H-pyrimido[4,5-d][1,3]oxazin-7-yl}amino)ethyl]-1,2-dihydroquinolin-2-one]	1000 to 10000 nM	> 10000 nM
C[C@H](Nc1ncc2c(n1)NC(=O)CC2)c1cc2cc(Cl)ccc2[nH]c1=O [Compound I-62, 6-chloro-3-[(1S)-1-({7-oxo-5H,6H,7H,8H-pyrido[2,3-d]pyrimidin-2-yl}amino)ethyl]-1,2-dihydroquinolin-2-one]	1000 to 10000 nM	1000 to 10000 nM
C[C@H](Nc1ncc2c(n1)NC(=O)C2)c1cc2cc(Cl)ccc2[nH]c1=O [Compound I-60, 6-chloro-3-[(1S)-1-({6-oxo-5H,6H,7H-pyrrolo[2,3-d]pyrimidin-2-yl}amino)ethyl]-1,2-dihydroquinolin-2-one]	100 to 1000 nM	1000 to 10000 nM
CC(=O)N1CCOc2c1ccnc2N[C@@H](C)c1cc2cc(Cl)ccc2[nH]c1=O [Compound I-44, 3-[(1S)-1-({1-acetyl-1H,2H,3H-pyrido[3,4-b][1,4]oxazin-5-yl}amino)ethyl]-6-chloro-1,2-dihydroquinolin-2-one]	1000 to 10000 nM	> 10000 nM
C[C@H](Nc1ncc2[nH]c(=O)n(C)c2n1)c1cc2cc(Cl)ccc2[nH]c1=O [Compound I-58, 6-chloro-3-[(1S)-1-[(9-methyl-8-oxo-8,9-dihydro-7H-purin-2-yl)amino]ethyl]-1,2-dihydroquinolin-2-one]	100 to 1000 nM	1000 to 10000 nM
CC(=O)N1CCc2c1ccnc2N[C@@H](C)c1cc2cc(Cl)ccc2[nH]c1=O [Compound I-42, 3-[(1S)-1-({1-acetyl-1H,2H,3H-pyrrolo[3,2-c]pyridin-4-yl}amino)ethyl]-6-chloro-1,2-dihydroquinolin-2-one]	100 to 1000 nM	1000 to 10000 nM
Cc1cc2cc(CNc3ccc4ncsc4c3)c(=O)[nH]c2cc1C [Compound I-40, 3-{[(1,3-benzothiazol-6-yl)amino]methyl}-6,7-dimethyl-1,2-dihydroquinolin-2-one]	> 10000 nM	
COc1cc2cc(CNc3ccc4[nH]c(-c5ccc6[nH]cnc6c5)nc4c3)c(=O)[nH]c2cc1OC [Compound I-12, 3-({[2-(1H-1,3-benzodiazol-5-yl)-1H-1,3-benzodiazol-5-yl]amino}methyl)-6,7-dimethoxy-1,2-dihydroquinolin-2-one]	> 10000 nM	
O=C1Cc2ccc(NCc3cc4cc(Cl)ccc4[nH]c3=O)cc2N1 [Compound I-13, 6-chloro-3-{[(2-oxo-2,3-dihydro-1H-indol-6-yl)amino]methyl}-1,2-dihydroquinolin-2-one]	> 10000 nM	
O=c1[nH]c2ccc(Cl)cc2cc1CNc1ccc2[nH]c(C(F)(F)F)nc2c1 [Compound I-28, 6-chloro-3-({[2-(trifluoromethyl)-1H-1,3-benzodiazol-5-yl]amino}methyl)-1,2-dihydroquinolin-2-one]	> 10000 nM	
Cc1ccc2cc(NCc3cc4cc(C)c(C)cc4[nH]c3=O)ccc2n1 [Compound I-37, 6,7-dimethyl-3-{[(2-methylquinolin-6-yl)amino]methyl}-1,2-dihydroquinolin-2-one]	> 10000 nM	
C[C@H](Nc1ncc2[nH]c(=O)[nH]c2n1)c1cc2cc(Cl)ccc2[nH]c1=O [Compound I-59, 6-chloro-3-[(1S)-1-[(8-oxo-8,9-dihydro-7H-purin-2-yl)amino]ethyl]-1,2-dihydroquinolin-2-one]	1000 to 10000 nM	1000 to 10000 nM
COc1cc2[nH]c(=O)c([C@@H](C)Nc3ncc4c(n3)N(C)C(=O)OC4)cc2cc1Cl [Compound I-52, 6-chloro-7-methoxy-3-[(1R)-1-({1-methyl-2-oxo-1H,2H,4H-pyrimido[4,5-d][1,3]oxazin-7-yl}amino)ethyl]-1,2-dihydroquinolin-2-one]	100 to 1000 nM	1000 to 10000 nM
O=c1[nH]c2cc(NCc3cc4cc(Cl)ccc4[nH]c3=O)ccc2o1 [Compound I-3, 6-chloro-3-{[(2-oxo-2,3-dihydro-1,3-benzoxazol-5-yl)amino]methyl}-1,2-dihydroquinolin-2-one]	100 to 1000 nM	
Cn1c(=O)oc2cc(NCc3cc4cc(Cl)ccc4[nH]c3=O)ccc21 [Compound I-14, 6-chloro-3-{[(3-methyl-2-oxo-2,3-dihydro-1,3-benzoxazol-6-yl)amino]methyl}-1,2-dihydroquinolin-2-one]	> 10000 nM	
O=c1[nH]c2ccc(Cl)cc2cc1CNc1cccc2ccncc12 [Compound I-15, 6-chloro-3-{[(isoquinolin-8-yl)amino]methyl}-1,2-dihydroquinolin-2-one]	> 10000 nM	
O=c1[nH]c2ccc(Cl)cc2cc1CNc1cccc2c1OCC2 [Compound I-9, 6-chloro-3-{[(2,3-dihydro-1-benzofuran-7-yl)amino]methyl}-1,2-dihydroquinolin-2-one]	1000 to 10000 nM	
Cc1cc2cc(CNc3ccc4cn[nH]c4c3)c(=O)[nH]c2cc1C [Compound I-31, 3-{[(1H-indazol-6-yl)amino]methyl}-6,7-dimethyl-1,2-dihydroquinolin-2-one]	> 10000 nM	

The next lines start with the values.

IC50 [1]	IC50 [2]	Structure (SMILES)
< 100 nM	100 to 1000 nM	C[C@H](Nc1ncc2oc(=O)[nH]c2n1)c1cc2cc(Cl)ccc2[nH]c1=O [Compound I-56, 6-chloro-3-[(1S)-1-({2-oxo-2H,3H-[1,3]oxazolo[4,5-d]pyrimidin-5-yl}amino)ethyl]-1,2-dihydroquinolin-2-one]
100 to 1000 nM	1000 to 10000 nM	C[C@H](Nc1ncc2cn[nH]c2n1)c1cc2cc(Cl)ccc2[nH]c1=O [Compound I-45, 6-chloro-3-[(1S)-1-({1H-pyrazolo[3,4-d]pyrimidin-6-yl}amino)ethyl]-1,2-dihydroquinolin-2-one]
< 100 nM	< 100 nM	COc1cc2[nH]c(=O)c(C(C)Nc3ncc4c(n3)N(C)C(=O)OC4)cc2cc1Cl (racemic) [Compound I-50, 6-chloro-7-methoxy-3-[1-({1-methyl-2-oxo-1H,2H,4H-pyrimido[4,5-d][1,3]oxazin-7-yl}amino)ethyl]-1,2-dihydroquinolin-2-one]
100 to 1000 nM	> 10000 nM	O=c1ccc2cc(NCc3cc4cc(Cl)ccc4[nH]c3=O)ccc2o1 [Compound I-4, 6-chloro-3-{[(2-oxo-2H-chromen-6-yl)amino]methyl}-1,2-dihydroquinolin-2-one]
100 to 1000 nM	100 to 1000 nM	C[C@H](Nc1ncc2c(n1)N(C)C(=O)C2)c1cc2cc(Cl)ccc2[nH]c1=O [Compound I-61, 6-chloro-3-[(1S)-1-({7-methyl-6-oxo-5H,6H,7H-pyrrolo[2,3-d]pyrimidin-2-yl}amino)ethyl]-1,2-dihydroquinolin-2-one]
100 to 1000 nM	100 to 1000 nM	O=c1[nH]c2ccc(Cl)cc2cc1CNc1cccc2ocnc12 [Compound I-1, 3-{[(1,3-benzoxazol-4-yl)amino]methyl}-6-chloro-1,2-dihydroquinolin-2-one]
< 100 nM	< 100 nM	C[C@H](Nc1ncc2c(n1)N(C)C(=O)OC2)c1cc2cc(Cl)ccc2[nH]c1=O [Compound I-47, 6-chloro-3-[(1S)-1-({1-methyl-2-oxo-1H,2H,4H-pyrimido[4,5-d][1,3]oxazin-7-yl}amino)ethyl]-1,2-dihydroquinolin-2-one]
< 100 nM	< 100 nM	CC(C)CN1C(=O)OCc2cnc(N[C@@H](C)c3cc4cc(Cl)ccc4[nH]c3=O)nc21 [Compound I-46, 6-chloro-3-[(1S)-1-{[1-(2-methylpropyl)-2-oxo-1H,2H,4H-pyrimido[4,5-d][1,3]oxazin-7-yl]amino}ethyl]-1,2-dihydroquinolin-2-one]
< 100 nM	< 100 nM	CC(C)Cn1c(=O)oc2cnc(N[C@@H](C)c3cc4cc(Cl)ccc4[nH]c3=O)nc21 [Compound I-55, 6-chloro-3-[(1S)-1-{[3-(2-methylpropyl)-2-oxo-2H,3H-[1,3]oxazolo[4,5-d]pyrimidin-5-yl]amino}ethyl]-1,2-dihydroquinolin-2-one]
< 100 nM	100 to 1000 nM	C[C@H](Nc1ncc2c(n1)NC(=O)OC2)c1cc2cc(Cl)ccc2[nH]c1=O [Compound I-49, 6-chloro-3-[(1S)-1-({2-oxo-1H,2H,4H-pyrimido[4,5-d][1,3]oxazin-7-yl}amino)ethyl]-1,2-dihydroquinolin-2-one]
< 100 nM	< 100 nM	COc1cc2[nH]c(=O)c([C@H](C)Nc3ncc4c(n3)N(C)C(=O)OC4)cc2cc1Cl [Compound I-51, 6-chloro-7-methoxy-3-[(1S)-1-({1-methyl-2-oxo-1H,2H,4H-pyrimido[4,5-d][1,3]oxazin-7-yl}amino)ethyl]-1,2-dihydroquinolin-2-one]
< 100 nM	100 to 1000 nM	C[C@H](Nc1ncc2oc(=O)n(C)c2n1)c1cc2cc(Cl)ccc2[nH]c1=O [Compound I-57, 6-chloro-3-[(1S)-1-({3-methyl-2-oxo-2H,3H-[1,3]oxazolo[4,5-d]pyrimidin-5-yl}amino)ethyl]-1,2-dihydroquinolin-2-one]
< 100 nM	< 100 nM	C[C@H](Nc1ncc2c(n1)N(C)C(=O)OC2)c1cc2cc(Cl)c(OCc3ccccn3)cc2[nH]c1=O [Compound I-48, 6-chloro-3-[(1S)-1-({1-methyl-2-oxo-1H,2H,4H-pyrimido[4,5-d][1,3]oxazin-7-yl}amino)ethyl]-7-(pyridin-2-ylmethoxy)-1,2-dihydroquinolin-2-one]
